Measurements published in patent US20240350463A1, “SMALL MOLECULE COMPOUNDS” (APERTOR PHARMACEUTICALS, INC., priority 2021, published 2024).

Tests used:
[1] = system: mTOR activity (phospho-p70S6K); experiment: phospho-p70S6K FACS in activated mouse T-cells; type: cell-based
[2] = system: CD8 cells isolated from p14 transgenic mice; experiment: CD8 CTV-labelled proliferation assay; type: cell-based, mouse; details: activated for 72 hours; 10 nM, 100 nM, and 100 μM
Protocol: The five analogs and rapamycin were assayed for their effect on proliferation and correlation to p70S6K inhibitory activity. […] The proliferation was measured by FACS. The five analogs were tested at varying concentrations (10 nM, 100 nM, and 100 μM), activated for 72 hours with rapamycin and DMSO treated controls.
CD8 cells were isolated from p14 transgenic mice, then labelled with CTV. The labelled cells then were activated with plate-bound anti-CD3 (5 μg/mL) and soluble anti-CD28 (2 μg/mL), along with rapamycin, rapamycin analog, or DMSO. After activation of 48 hours and 72 hours, the cells were collected to assay the CVT labelling signal using flow cytometry. All rapamycin analogs decrease proliferation in CD8 cells, with varying potency (FIG. 12).

naïve CD4+ mouse T-cells = experiment: expansion of CD62L+ memory T-cells (FACS); type: cell-based
Protocol: RAP23 was further evaluated by treating naïve CD4+ T-cells at multiple concentrations (1 nM to 1 uM) for expansion of CD62L+ memory T-cells. […] These 5 compounds were identified to have reduced immunosuppression (with improved safety) with maximum and durable expansion of memory T-cells.

conventional T cells = experiment: culture of conventional T cells with RAP35; type: cell-based
Treg cells = experiment: treatment of Treg cells with expander beads; type: cell-based; details: 100 nM
naïve CD4+ mouse T cells = experiment: FACS of naïve CD4+ T cells for CD4+CD25+FOXP3+; details: 1 uM
[3] = stability during semi-preparative HPLC; type: physicochemical; details: approximately one fifth transformed spontaneously to a more nonpolar compound
Protocol: To accumulate 35-desmethylrapamycin (RAP35) and 35-desmethyl-27-demethoxyrapamycin (RAP35/27) for characterization and bioactivity assays, a 7.2-L scale of fermentation was conducted. 7.2 L fermentation medium was prepared and aliquoted into eighteen 2 L Erlenmeyer flasks 20 mL of the seed culture was inoculated into each 2 L Erlenmeyer flask, which was then capped with 8-layer gauze. The fermentation was conducted at 28° C., 220 rpm for 4 days. To process the culture, the fermentation broth was centrifuged at 9,000 g for 10 min at room temperature, and the cell pellet was collected and combined. After transferring the cells into a 5 L glass beaker, 2 volumes of acetonitrile were added into 1 volume of the cells. The mixture was stirred vigorously using a magnetic stirrer at room temperature for 1 h. The mixing was halted, and the mixture was allowed to settle under gravity for 30 min. The solvent layer was poured into a 5 L Erlenmeyer flask, and another 2 volumes of acetonitrile was added into the cells for extraction. After three times of extraction in total, the solvent layers were combined and concentrated under reduced pressure. […] The absorbance at 278 nm wavelength was monitored. […]

In the case of `CO[C@H]1C[C@@H]2CC[C@@H](C)[C@@](O)(O2)C(=O)C(=O)N2CCCC[C@H]2C(=O)O[C@H]([C@H](C)C[C@@H]2CC[C@@H](O)[C@H](OC)C2)CC(=O)[C@H](C)/C=C(\C)[C@@H](O)[C@@H](OC)C(=O)[C@H](C)CC/C=C/C=C/C=C/1C` [RAP23, (3S,6R,7E,9R,10R,12R,15E,17E,19E,21 S,23S,26R,27R,34aS)-9,27-dihydroxy-3-((R)-1-((1S,3R,4R)-4-hydroxy-3-methoxycyclohexyl)propan-2-yl)-10,21-dimethoxy-6,8,12,20,26-pentamethyl-9,10,12,13,14,21,22,23,24,25,26,27,32,33,34,34a-hexadecahydro-3H-23,27-epoxypyrido[2,1-c][1]oxa[4]azacyclohentriacontine-1,5,11,28,29(41H,6H,31H)-pentaone], the “inhibition of p70S6 high signal” value ([1]; even at 1 uM) is reported as “never fully inhibited”, the “proliferation relative to RAP35 and rapamycin” value [2] is reported as “increased proliferation” and the “generation of memory versus inhibition of proliferation” value (naïve CD4+ mouse T-cells) is reported as “promote potent generation of memory without potently inhibiting proliferation”. For the same compound, the “phospho-p70S6K low/CD62L+ high phenotype relative to all doses of rapamycin” value (naïve CD4+ mouse T-cells; 1 nM to 1 uM) was “reduced” and the “portion of cells with phospho-p70S6K high/CD62L+ high phenotype” value (naïve CD4+ mouse T-cells; 1 nM to 1 uM) was 7-10%.

For `CO[C@H]1C[C@@H]2CC[C@@H](C)[C@@](O)(O2)C(=O)C(=O)N2CCCC[C@H]2C(=O)O[C@H](CC[C@@H]2CC[C@@H](O)[C@H](OC)C2)CC(=O)[C@H](C)/C=C(\C)[C@@H](O)[C@@H](OC)C(=O)[C@H](C)C[C@H](C)/C=C/C=C/C=C/1C` [RAP35, (3R,6R,7E,9R,10R,2R,14S,15E,17E,19E,21S,23S,26R,27R,34aS)-9,27-dihydroxy-3-(2-((1S,3R,4R)-4-hydroxy-3-methoxycyclohexyl)ethyl)-10,21-dimethoxy-6,8,12,14,20,26-hexamethyl-9,10,12,13,14,21,22,23,24,25,26,27,32,33,34,34a-hexadecahydro-3H-23,27-epoxypyrido[2,1-c][1]oxa[4]azacyclohentriacontine-1,5,11,28,29(4H,6H,31H)-pentaone], the p70S6 high cells ([1]; overnight stimulation, therapeutic concentrations (1-200 nM)) was “significantly reduced”, the CCR7 expression (conventional T cells) was “increased” and the CD45RO expression (conventional T cells) was “decreased”. The “level of phosphorylation of 4EBP1 and S6” value (conventional T cells; 100 nM) was “mTOR pathway was being targeted”, the anti-inflammatory effects (conventional T cells; Cell Proliferation Dye and phenotypic markers) was “promising anti-inflammatory effects” and the “expression of CCR7” value (Treg cells) was “reduce”. The “expression of CD45RO” value (Treg cells) was “reduce”, the “expression of CXCR3” value (Treg cells) was “reduce” and the “phosphorylation of 4EBP1” value (Treg cells) was “reduce”. The “phosphorylation of S6” value (Treg cells) was “reduce” and the effect on differentiation (naïve CD4+ mouse T cells) was “strong effect”.

In the case of `CO[C@H]1C[C@@H]2CC[C@@H](C)[C@@](O)(O2)C(=O)C(=O)N2CCCC[C@H]2C(=O)O[C@H](CC[C@@H]2CC[C@@H](O)[C@H](OC)C2)CC(=O)[C@H](C)/C=C(\C)[C@@H](O)CC(=O)[C@H](C)C[C@H](C)/C=C/C=C/C=C/1C` [RAP35/27A, (3R,6R,7E,9S,12R,14S,5E,17E,19E,21S,23S,26R,27R,34aS)-9,27-dihydroxy-3-(2-((1S,3R,4R)-4-hydroxy-3-methoxycyclohexyl)ethyl)-21-methoxy-6,8,12,14,20,26-hexamethyl-9,10,12,13,14,21,22,23,24,25,26,27,32,33,34,34a-hexadecahydro-3H-23,27-epoxypyrido[2,1-c][1]oxa[4]azacyclohentriacontine-1,5,11,28,29(4H,6H,31H)-pentaone], the “stability in the process of semi-preparation” value [3] is reported as “tended to be unstable”.
